Measurements published in US5158946A, “Cephalosporin derivatives and pharmaceutical compositions” (Beecham Group p.l.c., priority 1989, dated 1992).
≈ marks a conversion by molar mass, not a printed value. Counter-ions that a name gives are not always drawn. Like-named read-outs stand apart in the source and are kept apart here.

Assays:
E. coli (NCTC 10418) = experiment: In vitro antibacterial activity, MIC against E. coli (NCTC 10418); type: cell-based
S. aureus (Oxford) = experiment: In vitro antibacterial activity, MIC against S. aureus (Oxford); type: cell-based
[1] = Escherichia coli, NCTC10418, E. coli (NCTC 10418), read-out: MIC
[2] = Staphylococcus aureus, read-out: MIC

MIC (E. coli (NCTC 10418); [1]) | MIC (S. aureus (Oxford); [2]) | MIC (E. coli (NCTC 10418); E. coli (NCTC 10418)) | MIC (S. aureus (Oxford)) | SMILES
0.06 µg/mL (≈ 0.115 µM) | 0.25 µg/mL (≈ 0.477 µM) | – | – | Cc1cc(SCC2=C(C(=O)O)N3C(=O)[C@@H](NC(=O)/C(=N\O)c4csc(N)n4)[C@H]3SC2)cc(=O)o1 [Example 17, 7β-[2-(2-Aminothiazol-4-yl)-2-(Z)-hydroxyiminoacetamido]-3-(6-methyl-2-oxo-2H-pyran-4-ylthiomethyl)ceph-3-em-4-carboxylic acid]
< 0.06 µg/mL | 8 µg/mL | – | – | Nc1nc(/C(=N/OCC(=O)O)C(=O)N[C@@H]2C(=O)N3C(C(=O)O)=C(CSC4=CC(=O)OC4)CS[C@H]23)cs1 [Example 16, 7β-[2-(2-Aminothiazol-4-yl)-2-(Z)-carboxymethoxyiminoacetamido]-3-(2,5-dihydro-2-oxofuran-4-ylthiomethyl)ceph-3-em-4-carboxylic acid, disodium salt]
0.12 µg/mL (≈ 0.241 µM) | 0.25 µg/mL (≈ 0.502 µM) | – | – | Nc1nc(/C(=N/O)C(=O)N[C@@H]2C(=O)N3C(C(=O)O)=C(SCC4=CC(=O)OC4)CS[C@H]23)cs1 [Example 12, 7β-[2-(2-Aminothiazol-4-yl)-2-(Z)-hydroxyiminoacetamido]-3-(2,5-dihydro-2-oxofuran-4-ylmethylthio)ceph-3-em-4-carboxylic acid]
< 0.03 µg/mL | 0.12 µg/mL (≈ 0.241 µM) | – | – | Nc1nc(/C(=N/O)C(=O)N[C@@H]2C(=O)N3C(C(=O)O)=C(CSC4=CC(=O)OC4)CS[C@H]23)cs1 [Example 6, 7β-[2-(2-Aminothiazol-4-yl)-2-(Z)-hydroxyiminoacetamido]-3-(2,5-dihydro-2-oxofuran-4-ylthiomethyl)ceph-3-em-4-carboxylic acid]
< 0.03 µg/mL | 0.5 µg/mL | – | – | CO/N=C(\C(=O)N[C@@H]1C(=O)N2C(C(=O)O)=C(CSc3cc(C)oc(=O)c3)CS[C@H]12)c1csc(N)n1 [Example 14, Sodium 7β-[2-(2-Aminothiazol-4-yl)-2-(Z)-methoxyiminoacetamido]-3-(6-methyl-2-oxo-2H-pyran-4-ylthiomethyl)ceph-3-em-4-carboxylate]
< 0.03 µg/mL | 0.25 µg/mL | – | – | CO/N=C(\C(=O)N[C@@H]1C(=O)N2C(C(=O)O)=C(CSc3ccoc(=O)c3)CS[C@H]12)c1csc(N)n1 [Example 15, Sodium 7β-[2-(2-Aminothiazol-4-yl)-2-(Z)-methoxyiminoacetamido]-3-(2-oxo-2H-pyran-4-ylthiomethyl)ceph-3-em-4-carboxylate]
0.25 µg/mL | 1 µg/mL | – | – | CO/N=C(\C(=O)N[C@@H]1C(=O)N2C(C(=O)O)=C(Sc3cc(C)oc(=O)c3)CS[C@H]12)c1csc(N)n1 [Example 4, Sodium 7β-[2-(2-Aminothiazol-4-yl)-2-(Z)-methoxyiminoacetamido]-3-(6-methyl-2-oxo-2H-pyran-4-ylthio)ceph-3-em-4-carboxylate]
0.12 µg/mL (≈ 0.241 µM) | 0.25 µg/mL (≈ 0.502 µM) | – | – | Nc1nc(/C(=N/O)C(=O)N[C@@H]2C(=O)N3C(C(=O)O)=C(SCC4=CCOC4=O)CS[C@H]23)cs1 [Example 8, 7β-[2-(2-Aminothiazol-4-yl)-2-(Z)-hydroxyiminoacetamido]-3-(2,5-dihydro-2-oxofuran-3-ylmethylthio)ceph-3-em-4-carboxylic acid]
0.12 µg/mL | 1 µg/mL | – | – | CO/N=C(\C(=O)N[C@@H]1C(=O)N2C(C(=O)O)=C(SC3=CC(=O)OC3)CS[C@H]12)c1csc(N)n1 [Example 2, Sodium 7β-[2-(2-Aminothiazol-4-yl)-2-(Z)-methoxyiminoacetamido]-3-(2,5-dihydro-2-oxofuran-4-ylthio)ceph-3-em-4-carboxylate]

Continued, compound first:

SMILES | MIC (E. coli (NCTC 10418); [1]) | MIC (S. aureus (Oxford); [2]) | MIC (E. coli (NCTC 10418); E. coli (NCTC 10418)) | MIC (S. aureus (Oxford))
CO/N=C(\C(=O)N[C@@H]1C(=O)N2C(C(=O)[O-])=C(OCC3=CC(=O)OC3)CS[C@H]12)c1csc(N)n1.[Na+] [Example 22, Sodium 7β-[2-(2-Aminothiazol-4-yl)-2-(Z)-methoxyiminoacetamido]-3-(2,5-dihydro-2-oxofuran-4-ylmethyloxy)ceph-3-em-4-carboxylate] | 0.06 µg/mL | 2 µg/mL | – | –
CO/N=C(\C(=O)N[C@@H]1C(=O)N2C(C(=O)[O-])=C(CSC3=C(Cl)C(=O)OC3)CS[C@H]12)c1csc(N)n1.[Na+] [Example 13, Sodium 7β-[2-(2-Aminothiazol-4-yl)-2-(Z)-methoxyiminoacetamido]-3-(3-chloro-2,5-dihydro-2-oxofuran-4-ylthiomethyl)ceph-3-em-4-carboxylate] | < 0.03 µg/mL | 0.25 µg/mL | – | –
CO/N=C(\C(=O)N[C@@H]1C(=O)N2C(C(=O)[O-])=C(SCC3=CCOC3=O)CS[C@H]12)c1csc(N)n1.[Na+] [Example 7, Sodium 7β-[2-(2-Aminothiazol-4-yl)-2-(Z)-methoxyiminoacetamido]-3-(2,5-dihydro-2-oxofuran-3-ylmethylthio)ceph-3-em-4-carboxylate] | < 0.03 µg/mL | 0.5 µg/mL | – | –
CO/N=C(\C(=O)N[C@@H]1C(=O)N2C(C(=O)O)=C(OC3C=C(C)C(=O)O3)CS[C@H]12)c1csc(N)n1 (single isomer, unassigned) [3 Isomer (b)] | – | – | 0.12 µg/mL (≈ 0.242 µM) | 4 µg/mL (≈ 8.07 µM)
CO/N=C(\C(=O)N[C@@H]1C(=O)N2C(C(=O)[O-])=C(SCC3=CC(=O)OC3)CS[C@H]12)c1csc(N)n1.[Na+] [Example 1, Sodium 7β-[2-(2-Aminothiazol-4-yl)-2-(Z)-methoxyiminoacetamido]-3-(2,5-dihydro-2-oxofuran-4-ylmethylthio)ceph-3-em-4-carboxylate] | < 0.03 µg/mL | 0.25 µg/mL | – | –
CO/N=C(\C(=O)N[C@@H]1C(=O)N2C(C(=O)O)=C(OC3C=C(C)C(=O)O3)CS[C@H]12)c1csc(N)n1 (single isomer, unassigned) [3 Isomer (a)] | – | 4 µg/mL (≈ 8.07 µM) | 0.5 µg/mL (≈ 1.01 µM) | –
CO/N=C(\C(=O)N[C@@H]1C(=O)N2C(C(=O)[O-])=C(SC3CCOC3=O)CS[C@H]12)c1csc(N)n1.[Na+] (stereo partly drawn) [Example 9, Sodium 7β-[2-(2-Aminothiazol-4-yl)-2-(Z)-methoxyiminoacetamido]-3-(2-oxotetrahydrofuran-3-ylthio)ceph-3-em-4-carboxylate] | 0.12 µg/mL | 2 µg/mL | – | –
CO/N=C(\C(=O)N[C@@H]1C(=O)N2C(C(=O)[O-])=C(CSC3=CC(=O)OC3)CS[C@H]12)c1csc(N)n1.[Na+] [Example 5, Sodium 7β-[2-(2-Aminothiazol-4-yl)-2-(Z)-methoxyiminoacetamido]-3-(2,5-dihydro-2-oxofuran-4-ylthiomethyl)ceph-3-em-4-carboxylate] | < 0.03 µg/mL | 0.25 µg/mL | – | –
